Measurements from patent US20060252706A1, “Composition for slimming” (priority 2003, published 2006).

Experiments:
[1] = system: skin of a New Zealand white rabbit; experiment: Skin irritation (Draize Primary Irritation Index)
Experimental: Skin irritations caused by theanine, caffeine, genistein, L-carnitine and catechin were measured observing edema and erythema on the skin of a New Zealand white rabbit.
Vehicle, 10% of theanine, caffeine, genistein, L-carnitine, catechin or mixture thereof were applied on the skin of a New Zealand white rabbit, twice a day for 4 days, total 8 times. After application, total skin irritation index was calculated by summing up the scores of erythema and edema. The skin irritation index was calculated according to Draize's skin Primary Irritation Index (P.I.I.) (Draize, J. H., Appraisal of the safety of chemical in foods, drugs and cosmetics).

[2] = system: 3T3-L1 fat cells; experiment: Decomposition of fat: glycerol isolated into culture medium from 3T3-L1 fat cells; type: cell-based, rat; conditions: FIG. 1
Experimental: (§1) 3T3-L1 cell, fibroblast cell line of […], was inoculated in 6 well culture plate with 1×10^5cells/well and cultured in DMEM (Dulbecos modified eagles medium, GIBCO BRL, Life Technologes) containing 10% of fetal bovine serum (FBS). After 2 days of culture, culture medium was changed with a new DMEM (containing 10% FBS), and cultured further 2 days. Then the culture cell was deposited in a new DMEM (containing 10% FBS) containing 1 μg/ml of insulin, 0.5 mM of IBMX and 0.25 μM of dexamethasone to induce differentiation, after 2 days, the culture medium was changed with a new DMEM containing insulin, and cultured for 5 days. After 5 days of culture, the culture medium was changed with a normal DMEM (containing 10% FBS), and observed until cells changed to fat cells (adipocytes).
The degree of the decomposition of fat was observed by measuring the concentration of glycerol isolated into the culture medium from fat cell. Measurement of the quantity of the glycerol was performed with chromphoric reaction method using GPO-trinder kit purchased from Sigma (St. Louis, Mo., U.S.A.), and absorption was measured in 540 nm using ELISA reader, then the result of each component was calculated based on the data of the control settled to be 100%. […]

[3] = system: β3-adrenergic receptor; experiment: Expression of β3-adrenergic receptor by RT-PCR in 3T3-L1 fat cells; type: cell-based, rat; conditions: 0.005%, 24 hours, FIG. 2
Experimental: as §1
In order to clarify the mechanism of acceleration of decomposition of neutral fat by the theanine, 3T3-L1 fat cells differentiated in the Reference Example 2 were used. The cells were treated with 0.005% of theanine purchased from KuridaKogyo (Japan) (more than 97%) and comparative materials (caffeine, control), and 24 hours later, RNAs were extracted from the cells and performed RT-PCR. The RT-PCR kit was purchased from TaKaRa, and primer of β3 -adrenergic receptor was purchased from Bioneer.

[4] = system: 3T3-L1 fat cells; experiment: Cell toxicity of theanine at high concentration; type: cell-based, mouse
[5] = system: 3T3-L1 cells; experiment: Accumulation of neutral fat in fat cells (GPO-trinder, absorption at 540 nm); type: cell-based, rat; conditions: 3T3-L1 cells treated during cell differentiation; compared with control; FIG. 4
Experimental: as §1
3T3-L1 fat cells differentiated in the Reference Example 2 were washed with PBS (phosphate buffered saline) three times, and harvested with extraction buffer (20 mM of Tris, 1 mM of EDTA and 1 mM of 2-mercaptoethanol). The harvested cells passed G26 needle 6 times on an ice base, centrifuged at 15000×g, 4° C. for 3 minutes and the supernatant was gathered to obtain cell extracts. […]
Neutral fats in the cell extracts obtained same as Experimental Example 3 underwent chromphoric reaction using GPO-trinder kit purchased from Sigma (St. Louis, Mo., U.S.A.), and absorption was measured at 540 nm using ELISA reader.

[6] = New Zealand white, rabbit, in vivo, 4 days
[7] = New Zealand white rabbit, compared with control

SMILES	Primary Irritation Index (0˜4) [1, 6]	skin irritation ([1]; rabbit, in vivo)	skin irritation [1, 7]	Primary Irritation Index (0˜4) ([1]; 10% solution on rabbit skin, twice a day for 4 days, total 8 times)	concentration of glycerol isolated into the culture medium from fat cell ([2]; compared with the control (100%))	effect of decomposition of fat compared with caffeine (positive comparative control) ([2]; same concentration of caffeine)	expression of β3-adrenergic receptor [3]	cell toxicity [4]	amount of neutral fat [5]
C[N+](C)(C)C[C@H](O)CC(=O)[O-] [L-carnitine]	0.7	do not cause skin irritation							
Cn1c(=O)c2c(ncn2C)n(C)c1=O [caffeine, reference compound]	0.7		do not cause skin irritation						
O=c1c(-c2ccc(O)cc2)coc2cc(O)cc(O)c12 [genistein]			do not cause skin irritation	0.8					
CCNC(=O)CC[C@H](N)C(=O)O [theanine]	0.8	do not cause skin irritation			increased	more excellent effect of decomposition of fat than that of caffeine	increases	does not cause cell toxicity	decreased
